Test results published in ChEMBL document CHEMBL4368907 (J Med Chem, 2019).
Blank lines part the entries; values can stand above or below the compound they belong to. Numbered stars: 1 amine (or outer) side, 2 acyl side, 3 side chain; on linkers, the order of the positions; unused ones are H or OH. Square brackets hold non-standard residues; d marks the D form. Side chains are listed from the residue outwards. Peptide text beside a SMILES is read from it. * marks the point of attachment. Phe(4-CH2SO3H) = N[C@@H](Cc1ccc(CS(=O)(=O)O)cc1)C(=O)O; Phenylacetyl(4-OSO3H) = O=C(Cc1ccc(OS(=O)(=O)O)cc1)*; Ala(indol-2-yl) = N[C@@H](Cc1cc2ccccc2[nH]1)C(=O)O; sY = N[C@@H](Cc1ccc(OS(=O)(=O)O)cc1)C(=O)O; C18 diacid = O=C(O)CCCCCCCCCCCCCCCCC(=O)*; NMe1Nal = CN[C@@H](Cc1cccc2ccccc12)C(=O)O; γGlu = O=C(O)[C@H](CCC(=O)[*:2])N[*:1]; 1Nal = N[C@@H](Cc1cccc2ccccc12)C(=O)O; NMeF = CN[C@@H](Cc1ccccc1)C(=O)O; NMeD = CN[C@@H](CC(=O)O)C(=O)O; dNMeD = CN[C@H](CC(=O)O)C(=O)O; Nle = CCCC[C@H](N)C(=O)O; X1 = O=C(Cc1ccc(O)cc1)*; AEEA = NCCOCCOCC(=O)O

Tests used:
[1] = molecular target: T1, Gastrin/cholecystokinin type B receptor (Homo sapiens, UniProt P32239); assay: Displacement of [125I]-CCK-8 from human CCK2R expressed in human 1321N1 cell membranes after 2 hrs by SPA assay
T1 sequence (P32239 whole entry): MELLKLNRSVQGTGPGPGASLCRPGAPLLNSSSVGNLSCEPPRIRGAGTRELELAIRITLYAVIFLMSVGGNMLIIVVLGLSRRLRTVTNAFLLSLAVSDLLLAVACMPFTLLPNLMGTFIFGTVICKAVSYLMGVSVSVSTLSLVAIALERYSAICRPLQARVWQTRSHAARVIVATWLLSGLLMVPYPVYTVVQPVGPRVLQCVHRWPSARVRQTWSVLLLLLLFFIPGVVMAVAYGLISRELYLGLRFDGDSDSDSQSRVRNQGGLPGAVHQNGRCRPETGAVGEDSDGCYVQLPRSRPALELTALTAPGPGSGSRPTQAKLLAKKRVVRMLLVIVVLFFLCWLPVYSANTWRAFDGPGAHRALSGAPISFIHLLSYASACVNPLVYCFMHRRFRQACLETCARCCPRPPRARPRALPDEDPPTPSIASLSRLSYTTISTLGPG

[2] = molecular target: T1, Gastrin/cholecystokinin type B receptor; assay: Agonist activity at human CCK2R expressed in human 1321N1 cells assessed as IP1 accumulation after 1 hr by HTRF assay; assay type: functional, cell-based
[3] = molecular target: T2, Cholecystokinin receptor type A (Homo sapiens, UniProt P32238); assay: Agonist activity at human CCK1R expressed in human 1321N1 cells assessed as IP1 accumulation after 1 hr by HTRF assay; assay type: functional, cell-based
T2 sequence (P32238 whole entry): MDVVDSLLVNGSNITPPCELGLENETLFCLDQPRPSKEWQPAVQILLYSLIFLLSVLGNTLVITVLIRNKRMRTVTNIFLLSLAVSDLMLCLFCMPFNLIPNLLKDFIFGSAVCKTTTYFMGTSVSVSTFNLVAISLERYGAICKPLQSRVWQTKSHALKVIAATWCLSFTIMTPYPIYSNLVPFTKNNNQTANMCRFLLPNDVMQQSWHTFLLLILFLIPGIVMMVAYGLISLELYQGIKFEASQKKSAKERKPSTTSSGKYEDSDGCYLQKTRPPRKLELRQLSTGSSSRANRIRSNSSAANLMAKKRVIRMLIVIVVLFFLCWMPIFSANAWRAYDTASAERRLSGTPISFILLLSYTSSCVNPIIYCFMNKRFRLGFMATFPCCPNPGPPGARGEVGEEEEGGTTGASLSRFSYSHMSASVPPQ

[4] = molecular target: T2, Cholecystokinin receptor type A; assay: Displacement of [125I]-CCK-8 from human CCK1R expressed in human 1321N1 cell membranes after 2 hrs by SPA assay

Compound: CCCC[C@H](NC(=O)[C@H](Cc1c[nH]c2ccccc12)NC(=O)CNC(=O)[C@H](CC(C)C)NC(=O)[C@H](Cc1ccc(OS(=O)(=O)O)cc1)NC(=O)[C@H](CC(=O)O)NC(=O)COCCOCCNC(=O)COCCOCCNC(=O)CC[C@H](NC(=O)CCCCCCCCCCCCCCCCC(=O)O)C(=O)O)C(=O)N1CCC[C@H]1C(=O)N(C)[C@@H](Cc1ccccc1)C(N)=O ({C18 diacid-γGlu-AEEA-AEEA}-D[sY]LGW[Nle]P[NMeF]-NH2)
pIC50 [1]: 5.27 | pEC50 [2]: < 6 | pEC50 [3]: 6.61 | pIC50 [4]: 7.39

Compound: CCCC[C@H](NC(=O)[C@H](Cc1ccc(OS(=O)(=O)O)cc1)NC(=O)[C@H](CC(=O)O)NC(=O)COCCOCCNC(=O)COCCOCCNC(=O)CC[C@H](NC(=O)CCCCCCCCCCCCCCCCC(=O)O)C(=O)O)C(=O)NCC(=O)N[C@@H](Cc1c[nH]c2ccccc12)C(=O)N[C@H](C(=O)N[C@@H](CC(=O)O)C(=O)N[C@@H](Cc1ccccc1)C(N)=O)[C@@H](C)CC ({C18 diacid-γGlu-AEEA-AEEA}-D[sY][Nle]GWIDF-NH2)
IC50 [1]: 2.14 nM | EC50 [2]: 0.631 nM | EC50 [3]: 0.11 nM | IC50 [4]: 0.794 nM

Compound: CCCC[C@H](NC(=O)[C@H](Cc1c[nH]c2ccccc12)NC(=O)CNC(=O)[C@H](CC(C)C)NC(=O)[C@@H](NC(=O)[C@H](CC(=O)O)NC(=O)COCCOCCNC(=O)COCCOCCNC(=O)CC[C@H](NC(=O)CCCCCCCCCCCCCCCCC(=O)O)C(=O)O)[C@@H](C)CC)C(=O)N(C)[C@@H](CC(=O)O)C(=O)N(C)[C@@H](Cc1ccccc1)C(N)=O ({C18 diacid-γGlu-AEEA-AEEA}-DILGW[Nle][NMeD][NMeF]-NH2)
pIC50 [1]: < 5 | pEC50 [2]: < 6 | pEC50 [3]: 9.41 | pIC50 [4]: 8.37

Compound: CCCC[C@H](NC(=O)[C@H](Cc1cc2ccccc2[nH]1)NC(=O)CNC(=O)[C@H](CCCCNC(=O)COCCOCCNC(=O)COCCOCCNC(=O)CC[C@H](NC(=O)CCCCCCCCCCCCCCCCC(=O)O)C(=O)O)NC(=O)[C@H](Cc1ccc(OS(=O)(=O)O)cc1)NC(=O)[C@H](CC(=O)O)NC(C)=O)C(=O)N(C)[C@@H](CC(=O)O)C(=O)N(C)[C@@H](Cc1ccccc1)C(N)=O (Ac-D[sY]K([AEEA-AEEA-γGlu-C18 diacid])G[Ala(indol-2-yl)][Nle][NMeD][NMeF]-NH2)
pIC50 [1]: 6.24 | pEC50 [2]: 6.5 | pEC50 [3]: 9.61 | pIC50 [4]: 10.19

Compound: CCCC[C@H](NC(=O)[C@H](Cc1ccc(OS(=O)(=O)O)cc1)NC(=O)[C@H](CC(=O)O)NC(=O)COCCOCCNC(=O)COCCOCCNC(=O)CC[C@H](NC(=O)CCCCCCCCCCCCCCCCC(=O)O)C(=O)O)C(=O)NCC(=O)N[C@@H](Cc1c[nH]c2ccccc12)C(=O)N[C@@H](CCCC)C(=O)N(C)[C@@H](CC(=O)O)C(=O)N[C@@H](Cc1cccc2ccccc12)C(N)=O ({C18 diacid-γGlu-AEEA-AEEA}-D[sY][Nle]GW[Nle][NMeD][1Nal]-NH2)
IC50 [1]: 115 nM | EC50 [2]: 1.86 nM | EC50 [3]: 0.501 nM | IC50 [4]: 0.0794 nM

Compound: CCCC[C@H](NC(=O)Cc1ccc(O)cc1)C(=O)NCC(=O)N[C@@H](Cc1c[nH]c2ccccc12)C(=O)N[C@@H](CCCC)C(=O)N(C)[C@@H](CC(=O)O)C(=O)N(C)[C@@H](Cc1ccccc1)C(N)=O (X1-[Nle]GW[Nle][NMeD][NMeF]-NH2)
IC50 [1]: > 10000 nM | EC50 [2]: > 1000 nM | EC50 [3]: 8.51 nM | IC50 [4]: 42.7 nM

Compound: CCCC[C@H](NC(=O)[C@H](Cc1c[nH]c2ccccc12)NC(=O)CNC(=O)[C@H](CC(C)C)NC(=O)[C@H](Cc1ccc(CS(=O)(=O)O)cc1)NC(=O)[C@H](CC(=O)O)NC(=O)COCCOCCNC(=O)COCCOCCNC(=O)CC[C@H](NC(=O)CCCCCCCCCCCCCCCCC(=O)O)C(=O)O)C(=O)N[C@@H](CC(=O)O)C(=O)N[C@@H](Cc1ccccc1)C(N)=O ({C18 diacid-γGlu-AEEA-AEEA}-D[Phe(4-CH2SO3H)]LGW[Nle]DF-NH2)
IC50 [1]: 0.891 nM | EC50 [2]: 0.447 nM | EC50 [3]: 0.0676 nM | IC50 [4]: 0.245 nM

Other lines, results leading:

pIC50 [1]: 5.13 | pEC50 [2]: < 6 | pEC50 [3]: 9.67 | pIC50 [4]: 8.57
Compound: CCCC[C@H](NC(=O)[C@H](Cc1c[nH]c2ccccc12)NC(=O)CNC(=O)[C@H](CC(C)C)NC(=O)[C@H](Cc1c[nH]c2ccccc12)NC(=O)[C@H](CC(=O)O)NC(=O)COCCOCCNC(=O)COCCOCCNC(=O)CC[C@H](NC(=O)CCCCCCCCCCCCCCCCC(=O)O)C(=O)O)C(=O)N(C)[C@@H](CC(=O)O)C(=O)N(C)[C@@H](Cc1ccccc1)C(N)=O ({C18 diacid-γGlu-AEEA-AEEA}-DWLGW[Nle][NMeD][NMeF]-NH2)

IC50 [1]: 7410 nM | EC50 [2]: > 1000 nM | EC50 [3]: 0.0251 nM | IC50 [4]: 0.0447 nM
Compound: CCCC[C@H](NC(=O)Cc1ccc(OS(=O)(=O)O)cc1)C(=O)NCC(=O)N[C@@H](Cc1c[nH]c2ccccc12)C(=O)N[C@@H](CCCC)C(=O)N(C)[C@H](CC(=O)O)C(=O)N[C@@H](Cc1ccccc1)C(N)=O ({Phenylacetyl(4-OSO3H)}-[Nle]GW[Nle][dNMeD]F-NH2)

IC50 [1]: 0.288 nM | EC50 [2]: 0.457 nM | EC50 [3]: 0.115 nM | IC50 [4]: 0.0871 nM
Compound: CCCC[C@H](NC(=O)[C@H](Cc1c[nH]c2ccccc12)NC(=O)CNC(=O)[C@H](CC(C)C)NC(=O)[C@H](Cc1ccc(OS(=O)(=O)O)cc1)NC(=O)[C@H](CC(=O)O)NC(=O)COCCOCCNC(=O)COCCOCCNC(=O)CC[C@H](NC(=O)CCCCCCCCCCCCCCCCC(=O)O)C(=O)O)C(=O)N[C@@H](CC(=O)O)C(=O)N(C)[C@@H](Cc1ccccc1)C(N)=O

pIC50 [1]: 5.08 | pEC50 [2]: < 6 | pEC50 [3]: 10.22 | pIC50 [4]: 9.3
Compound: CCCC[C@H](NC(=O)[C@H](Cc1c[nH]c2ccccc12)NC(=O)CNC(=O)[C@@H](CCCNC(=O)COCCOCCNC(=O)COCCOCCNC(=O)CC[C@H](NC(=O)CCCCCCCCCCCCCCCCC(=O)O)C(=O)O)NC(=O)Cc1ccc(O)cc1)C(=O)N(C)[C@H](CC(=O)O)C(=O)N(C)[C@@H](Cc1ccccc1)C(N)=O

IC50 [1]: 13.5 nM | EC50 [2]: 0.832 nM | EC50 [3]: 912 nM | IC50 [4]: 2570 nM
Compound: CCCC[C@H](NC(=O)[C@H](Cc1c[nH]c2ccccc12)NC(=O)[C@H](CCCCN)NC(=O)[C@H](CCCC)NC(=O)[C@H](Cc1ccc(OS(=O)(=O)O)cc1)NC(=O)[C@H](CC(=O)O)NC(=O)COCCOCCNC(=O)COCCOCCNC(=O)CC[C@H](NC(=O)CCCCCCCCCCCCCCCCC(=O)O)C(=O)O)C(=O)N[C@@H](CC(=O)O)C(=O)N[C@@H](Cc1ccccc1)C(N)=O ({C18 diacid-γGlu-AEEA-AEEA}-D[sY][Nle]KW[Nle]DF-NH2)

IC50 [1]: 309 nM | EC50 [2]: 5.75 nM | EC50 [3]: 11.7 nM | IC50 [4]: 19.1 nM
Compound: CCCC[C@H](NC(=O)[C@H](Cc1ccc(OS(=O)(=O)O)cc1)NC(=O)[C@H](CC(=O)O)NC(=O)COCCOCCNC(=O)COCCOCCNC(=O)CC[C@H](NC(=O)CCCCCCCCCCCCCCCCC(=O)O)C(=O)O)C(=O)NCC(=O)N[C@@H](Cc1c[nH]c2ccccc12)C(=O)N[C@@H](CCCC)C(=O)N[C@@H](CC(N)=O)C(=O)N[C@@H](Cc1ccccc1)C(N)=O ({C18 diacid-γGlu-AEEA-AEEA}-D[sY][Nle]GW[Nle]NF-NH2)

IC50 [1]: 603 nM | EC50 [2]: 16.6 nM | EC50 [3]: 0.501 nM | IC50 [4]: 0.115 nM
Compound: CCCC[C@H](NC(=O)[C@H](Cc1c[nH]c2ccccc12)NC(=O)CNC(=O)[C@H](CC(C)C)NC(=O)[C@H](Cc1ccc(OS(=O)(=O)O)cc1)NC(=O)[C@H](CC(=O)O)NC(=O)COCCOCCNC(=O)COCCOCCNC(=O)CC[C@H](NC(=O)CCCCCCCCCCCCCCCCC(=O)O)C(=O)O)C(=O)N(C)[C@@H](CC(=O)O)C(=O)N(C)[C@@H](Cc1cccc2ccccc12)C(N)=O ({C18 diacid-γGlu-AEEA-AEEA}-D[sY]LGW[Nle][NMeD][NMe1Nal]-NH2)
